# Laboratory results: patent US20060069132A1, “Azolecarboxamide herbicides” (priority 2004, published 2006)
# How the values were obtained:
# woolly cupgrass = assay: Test C pre-/postemergence herbicide test; format: in vivo, Eriochloa villosa; conditions: preemergence
# Summary of the method: (§1)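 Emerged plants at the 1- to 4-leaf stage (2–18 cm), or freshly planted seeds, received test chemicals in a non-phytotoxic solvent mixture with surfactant. Response was visually scored against controls after 12 to 14 days in the greenhouse, on a 0 (no effect) to 100 (complete control) scale.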
# barnyardgrass = assay: Test C flooded paddy test; format: in vivo, Echinochloa crus-galli
# Summary of the method: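 Visual rating, 0 (no effect) to 100 (complete control), vs. controls at 12–14 d in greenhouse. Postemergence: 1–4-leaf plants, 2–18 cm. Paddy: flooded, barnyardgrass at 2-leaf stage.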
# yellow nutsedge = assay: Test C pre-/postemergence herbicide test; format: in vivo, Cyperus esculentus; conditions: preemergence
# Summary of the method: as §1
# ducksalad = assay: Test C flooded paddy test; format: in vivo, Heteranthera limosa
# morningglory = assay: Test C pre-/postemergence herbicide test; format: in vivo, Ipomoea coccinea; set-up: key to Plant response rating, Morningglory: 0 = no effect, 100 = complete control; conditions: preemergence
# Summary of the method: as §1
# soybean = assay: Test C pre-/postemergence herbicide test; format: in vivo, Glycine max; conditions: preemergence
# Summary of the method: as §1
# giant foxtail = assay: Test C pre-/postemergence herbicide test; format: in vivo, Setaria faberi; conditions: preemergence
# Summary of the method: as §1
# [1] = 125 g ai/ha, scale 0 (no effect) to 100 (complete control), visual, 12 to 14 days
# [2] = 500 g ai/ha, scale 0 to 100 (0 no effect, 100 complete control), visual, 12 to 14 days
# [3] = 62 g ai/ha, scale 0 to 100 (0 no effect, 100 complete control)
# [4] = 125 g ai/ha, scale 0 to 100 (0 no effect, 100 complete control)
# [5] = 250 g ai/ha, scale of 0 to 100, 0 is no effect, 100 is complete control
# [6] = 500 g ai/ha, visual rating after 12 to 14 days, scale 0 to 100 (0 no effect, 100 complete control)
compound,measurement,setting,value
CCn1nc(C(C)(C)C)cc1C(=O)Nc1cc(C(=O)N(C)OC)ccc1F [Compound 244],"Plant response rating, Cupgrass, Woolly","woolly cupgrass; 62 g ai/ha, scale 0 to 100",65
same,"Plant response rating, Cupgrass, Woolly",woolly cupgrass; [1],65
same,"Plant response rating, Cupgrass, Woolly","woolly cupgrass; 250 g ai/ha, scale 0-100",85
same,"Plant response rating, Cupgrass, Woolly",woolly cupgrass; [2],95
same,Barnyardgrass plant response rating,barnyardgrass; [3],0
same,Barnyardgrass plant response rating,barnyardgrass; [4],70
same,Barnyardgrass plant response rating,barnyardgrass; [5],75
same,"Plant response rating, Barnyardgrass",barnyardgrass; [6],80
same,"Plant response rating, Nutsedge, Yellow","yellow nutsedge; 62 g ai/ha, scale 0 to 100",0
same,"Plant response rating, Nutsedge, Yellow",yellow nutsedge; [1],0
same,"Plant response rating, Nutsedge, Yellow","yellow nutsedge; 250 g ai/ha, scale 0-100",0
same,"Plant response rating, Nutsedge, Yellow",yellow nutsedge; [2],0
same,Ducksalad plant response rating,ducksalad; [3],25
same,Ducksalad plant response rating,ducksalad; [4],85
same,Ducksalad plant response rating,ducksalad; [5],85
same,"Plant response rating, Ducksalad",ducksalad; [6],95
same,"Plant response rating, Morningglory","morningglory; 62 g ai/ha, scale 0 to 100",0
same,"Plant response rating, Morningglory",morningglory; [1],15
same,"Plant response rating, Morningglory","morningglory; 250 g ai/ha, scale 0-100",20
same,"Plant response rating, Morningglory",morningglory; [2],55
same,"Plant response rating, Soybean","soybean; 62 g ai/ha, scale 0 to 100",0
same,"Plant response rating, Soybean","soybean; 250 g ai/ha, scale 0-100",10
same,"Plant response rating, Soybean",soybean; [2],15
same,"Plant response rating, Foxtail, Giant","giant foxtail; 62 g ai/ha, scale 0 to 100",80
same,"Plant response rating, Foxtail, Giant",giant foxtail; [1],95
same,"Plant response rating, Foxtail, Giant","giant foxtail; 250 g ai/ha, scale 0-100",95
same,"Plant response rating, Foxtail, Giant",giant foxtail; [2],100
